Values quoted from earlier work as cited in patent US9375463B2, “Compositions and methods for improving sleep using a nutraceutical formulation” (Creative Medical Health Inc., priority 2013, dated 2016).

How the values were obtained:
elderly subjects = conditions: 500 mg daily for 8 weeks, 46 elderly subjects
[1] = test system: children most of whom were neurologically disabled; conditions: 2-5 mg before bedtime for 7-10 days, fifteen subjects
[2] = test system: healthy males with normal sleep patterns; conditions: 0.3 or 1.0 mg, orally
[3] = 3 mg
subjects = conditions: oral, 4 weeks, 9 subjects; by increasing sensitivity to light
infants = conditions: daily for 12 months

[Mg+2] [magnesium]
levels of serum cortisol (elderly subjects): reduced the levels of serum cortisol | subjective measures of sleep (elderly subjects): improved subjective measures of sleep

N-acetyl-5-hydroxytryptamine [melatonin]
sleep and moods [1]: improve sleep and moods | falling asleep faster than individuals given placebo (sleep onset latency) [2]: approximately 40 minutes | subjective sleep experiences (time to fall asleep, quality of sleep, awakenings) [3]: subjective improvements in sleep experiences

vitamin B12
circadian rhythm (subjects): advanced the circadian rhythm

zinc [zinc supplements]
night sleep duration (infants): increased night sleep duration | night waking (infants): less night waking
